Where two headings read alike, the source gives them in different places.
Tests used:
[1] = target: T1, human recombinant JAK2 protein (Homo sapiens, UniProt O60674); assay: JAK2 Inhibition Assay (HTRF kinase assay); format: biochemical; conditions: human recombinant JAK2, 2.5 μM ATP substrate solution
T1 construct: purchased Carna Biosciences 08-045
Method: The effect of the compounds of the present invention on the enzymatic activity of JAK2 was assessed by detecting the substrate phosphorylation level in a kinase reaction using the HTRF kinase assay detection kit (Cisbio, Cat. No. 62TK0PEC).
(§1) The experimental method is generally described below:
A reaction buffer contained the following components: an enzyme reaction buffer (1×), 5 mM MgCl2, 1 mM DTT and 0.01% Brij35 from the kit. A JAK2 kinase solution contained a human recombinant JAK2 protein (Carna Biosciences, 08-045) diluted in the reaction buffer to 0.15 ng/μL. A substrate reaction solution contained 2.5 μM ATP and 0.25 μM of a biotinylated tyrosine kinase substrate from the kit in the reaction buffer. A detection solution contained 0.1 ng/μL Eu^3+-labeled cage antibody (Cisbio, 61T66KLB) and 12.5 nM streptavidin-labeled XL665 (Cisbio, 610SAXLB) in the reaction buffer.
(§2) The test compound was dissolved in DMSO to 10 μM, followed by a serial 4-fold dilution with DMSO to a minimum concentration of 0.061 nM. Each concentration was further diluted 40-fold with the reaction buffer.
To a 384-well assay plate (Corning, 3674) were added 4 μL of compound solution and 2 μL of JAK2 kinase solution. The mixture was mixed and incubated at room temperature for 15 minutes, and then added with 4 μL of the substrate reaction solution. After further incubation at room temperature for 30 minutes, the reaction mixture was added with an equal volume of 10 μL detection solution and allowed to stand at room temperature for 30 minutes. An Envision plate reader (Perkin Elmer) was then used to measure the progress of the reaction at 620 nm and 665 nm. The ratio of absorbances at 665 nm and 620 nm was positively correlated with the degree of substrate phosphorylation, therefore the activity of JAK2 kinase was detected. In the experiment, the group without JAK2 kinase protein was treated as the 100% inhibition group, and the group with JAK2 kinase protein but not the test compound was treated as the 0% inhibition group. The percentage of inhibition on JAK2 kinase activity by the test compound was calculated using the following formula: Percentage of inhibition=100−100*(ratiocompound−ratio100% inhibition)/(ratio0% inhibition−ratio100% inhibition)
The IC50 value of the test compound was calculated from 8 concentration points using the XLfit softwere (ID Business Solutions Ltd., UK) by the following formula: Y=Bottom+(Top−Bottom)/(1+10^((log IC50−X)×slope factor))
Where Y was the percentage of inhibition, X was the logarithm of the concentration of the test compound. Bottom was the bottom plateau value of the S-shaped curve, Top was the top plateau value of the S-shaped curve, and slope factor was the slope coefficient of the curve.

[2] = target: T2, human recombinant TYK2 protein (Homo sapiens, UniProt P29597); assay: TYK2 Inhibition Assay (HTRF kinase assay); format: biochemical; conditions: human recombinant TYK2, 11.25 μM ATP substrate solution
T2 construct: purchased Carna Biosciences 08-147
T2 sequence (P29597 871-1187 limits assumed): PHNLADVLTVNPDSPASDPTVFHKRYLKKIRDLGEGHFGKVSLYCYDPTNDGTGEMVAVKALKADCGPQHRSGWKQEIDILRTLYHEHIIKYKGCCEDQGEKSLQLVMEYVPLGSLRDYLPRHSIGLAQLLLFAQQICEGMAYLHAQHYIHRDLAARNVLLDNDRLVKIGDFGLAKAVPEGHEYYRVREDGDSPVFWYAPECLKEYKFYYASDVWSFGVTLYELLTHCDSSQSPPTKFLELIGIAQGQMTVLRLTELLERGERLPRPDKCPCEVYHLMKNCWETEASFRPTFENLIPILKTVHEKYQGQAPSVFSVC
Method: The effect of the compounds of the present invention on the enzymatic activity of TYK2 was assessed by detecting the substrate phosphorylation level in a kinase reaction using the HTRF kinase assay detection kit (Cisbio, Cat. No. 62TK0PEC).
as §1
A reaction buffer contained the following components: an enzyme reaction buffer (1×), 5 mM MgCl2 mM DTT and 0.01% Brij35 from the kit. A TYK2 kinase solution contained human recombinant TYK2 protein (Carna Biosciences, 08-147) diluted in the reaction buffer to 0.25 ng/μL. A substrate reaction solution contained 11.25 μM ATP and 0.5 μM of a biotinylated tyrosine kinase substrate from the kit in the reaction buffer. A detection solution contained 0.1 ng/μL Eu^3+-labeled cage antibody (Cisbio, 61T66KLB) and 25 nM streptavidin-1 added XL665 (Cisbio, 610SAXLB) in the reaction buffer.
as §2
To a 384-well assay plate (Corning, 3674) were added 4 μL of compound solution and 2 μL of TYK2 kinase solution. The mixture was mixed and incubated at room temperature for 15 minutes, and then added with 4 μL of the substrate reaction solution. After further incubation at room temperature for 40 minutes, the reaction mixture was added with an equal volume of 10 μL detection solution and allowed to stand at room temperature for 30 minutes. An Envision plate reader (Perkin Elmer) was then used to measure the progress of the reaction at 620 nm and 665 nm. The ratio of absorbances at 665 nm and 620 nm was positively correlated with the degree of substrate phosphorylation, therefore the activity of TYK2 kinase was detected. In the experiment, the group without TYK2 kinase protein was treated as the 100% inhibition group, and the group with TYK2 kinase protein but not the test compound was treated as the 0% inhibition group. The percentage of inhibition on TYK2 kinase activity by the test, compound was calculated using the following formula: Percentage of inhibition=100−100*(ratiocompound−ratio100% inhibition)/(ratio0% inhibition−ratio100% inhibition)
The IC50 value of the test compound was calculated from 8 concentration points using the XLfit software (ID Business Solutions Ltd., UK) by the following formula: Y=Bottom+(Top−Bottom)/(1+10^((log IC50−X)slope factor))
(§3) Where Y was the percentage of inhibition, X was the logarithm of the concentration of the test compound, Bottom was the bottom plateau value of the S-shaped curve, Top was the top plateau value of the S-shaped curve, and slope factor was the slope coefficient of the curve.

[3] = tested on: IL-12-induced IFN-γ secretion in NK92 cells; assay: Inhibition of IL-12-induced IFN-γ Secretion in NK92 Cells (ELISA); format: cell-based, human; conditions: 24 hours incubation, 8 concentration points, read-out: IC50 (NK92_IL12/IFNγ)
Method: Inhibition of IL-12-induced IFN-γ Secretion in NK92 Cells
The effect of the compounds of the present invention on IFN-γ secretion induced by IL-12 in NK92 cells was evaluated by an enzyme-linked immunosorbent assay (ELISA).
IL-12 receptor is mainly expressed in activated T-cells, NK cells (NK92 is a NK cell line), DC cells, and B-cells. When binding to IL-12, it activates JAK2/TYK2 signal transduction pathway within NK cells and T lymphocytes, thereby inducing secretion of IFN-γ.
as §1
The test compound was dissolved in DMSO to 2.5 mM, followed by a serial 4-fold dilution with DMSO to a minimum concentration of […]. Each concentration was further diluted 50-fold with an FBS-free MEMα medium (Gibco, 12561-056).
NK92 cells (Nanjing Cobioer, CBP60980) were cultured in a complete MEMα medium containing 12.5% FBS (Ausbian, VS500T), 12.5% horse serum (Gibco, 16050-122), 0.02 mM folic acid (Sigma, F8758), 0.2 mM inositol (Sigma, 17850), 0.55 mM β-mercaptoethanol (Gibco, 21985-023), 200 U/mL IL-2 (R&D Systems, 202-1L), and 100 U/mL penicillin (Thermofisher, 15140122). When covering 80-90% of the culture container surface, the cells were dispersed and plated on a 96-well plate (Thermofisher, 167425) with 100,000 cells per well (80 μL of the complete MEMα medium without IL-2). The 96-well plate was then incubated overnight in a 37° C./5% CO2 incubator.
After overnight incubation, 10 μL of the test compound and 10 μL of 50 ng/mL IL-12 (R & D Systems, 219-1L) were added to each well and mix gently, and the 96-well plate was incubated in the 37° C./5% CO2 incubator for additional 24 hours. The plate as centrifuged at 800 rpm for 10 minutes at room temperature and 50 μL of the supernatant from each well was transferred to another 96-well plate (Sigma, CLS3695) coated with anti-IFN-γ antibody. The amount of IFN-γ secretion was detected following the instruction from the Human IFN-γ DuoSet ELISA kit (R & D Systems, DY285B). In the experiment, the group with IL-12 and the test compound being replaced with the MEMα medium was the non-stimulated control group (100% inhibition), and the group with IL-12 and 0.2% DMSO was the stimulated group (0% inhibition). The percentage of inhibition on IL-12 induced IFN-γ secretion in NK-92 cells by the test compound was calculated using the following formula: Percentage of inhibition=100−100*(signalcompound−signalnon-stimulated control)/(signalstimulated control−signalnon-stimulated control)
The IC50 value of the test compound was calculated front 8 concentration points using the XLfit software (ID Business Solutions Ltd., UK) by the following formula: Y=Bottom+(Top−Bottom)/(1+10^((log IC50−X)×slope factor))
as §3

T1 sequence (O60674 826-1132 limits assumed): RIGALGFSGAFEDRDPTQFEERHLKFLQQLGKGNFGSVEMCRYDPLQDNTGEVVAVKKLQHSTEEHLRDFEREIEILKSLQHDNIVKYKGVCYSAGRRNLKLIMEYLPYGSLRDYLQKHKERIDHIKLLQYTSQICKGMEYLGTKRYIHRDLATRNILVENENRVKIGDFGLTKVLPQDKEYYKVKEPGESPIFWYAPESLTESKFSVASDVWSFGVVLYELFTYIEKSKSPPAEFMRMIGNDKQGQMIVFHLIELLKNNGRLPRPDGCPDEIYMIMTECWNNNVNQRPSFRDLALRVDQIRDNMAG

Row | IC50 [1] [nM] | IC50 [2] [nM] | IC50 [3] [nM] | IC50 ([3]; Homo sapiens) [nM] | Compound
1 | 3.2 | 2.3 | 5240 | – | 3-((3aR,6aS)-3a,6a-dimethyl-5-5-methyl-2-((1-methyl-1H-pyrazol-4-yl)amino)pyrimidin-4-yl)hexahydropyrrolo[3,4-c]pyrrol-2(1H)-yl)-3-oxopropanenitrile [Compound 57]
2 | 2.2 | 6 | 291 | – | 4-(3aR,6aS)-5-(isoxazol-5-ylmethyl)-3a,6a-dimetylhexahydropyrrolo[3,4-c]pyrrol-2(1H)-yl)-5-methyl-N-(1-methyl-1H-pyrazol-4-yl)pyrimidin-2-amine [Compound 67]
3 | 8.9 | 1.6 | – | 578 | Cn1cc(Nc2ncc(Cl)c(N3C[C@@H]4CN(S(C)(=O)=O)C[C@]4(C)C3)n2)cn1 (racemic) [Compound 61, cis-5-chloro-N-(1-methyl-1H-pyrazol-4-yl)-4-(3a-methyl-5-(methylsulfonyl)hexahydropyrrolo[3,4-c]pyrrol-2(1H)-yl)pyrimidin-2-amine]
4 | 2.6 | 0.6 | – | 269 | Cn1cc(Nc2ncc(Cl)c(N3C[C@H]4CN(C(=O)C5CC5)C[C@@]4(C)C3)n2)cn1 (racemic) [Compound 62, cis-(5-(5-chloro-2-((1-methyl-1H-pyrazol-4-yl)amino)pyrimidin-4-yl)-3a-methylhexahydropyrrolo[3,4-c]pyrrol-2(1H)-yl)(cyclopropyl)methanone]
5 | 1.2 | 0.3 | – | 267 | Cn1cc(Nc2ncc(Cl)c(N3C[C@@H]4CN(C(=O)CC#N)C[C@]4(C)C3)n2)cn1 (racemic) [Compound 63, cis-3-(5-(5-chloro-2-((1-methyl-IH-pyrazol-4-yl)amino)pyrimidin-4-yl)-3a-methylhexahydropyrrolo[3,4-c]pyrrol-2(1H)-yl)-3-oxopropanenitrile]
6 | 3.3 | 0.5 | – | 162 | Cn1cc(Nc2ncc(Cl)c(N3C[C@@H]4CN(C(=O)c5ccno5)C[C@]4(C)C3)n2)cn1 (racemic) [Compound 64, cis-(5-(5-chloro-2-((1-methyl-1H-pyrazol-4-yl)amino)pyrimidin-4-yl)-3a-methylhexahydropyrrolo[3,4-c]pyrrol-2(1H)-yl)(isoxazol-5-yl)methanone]
7 | 1.3 | 0.5 | – | 136 | Cn1cc(Nc2ncc(Cl)c(N3C[C@@H]4CN(C(=O)C5CC5(F)F)C[C@]4(C)C3)n2)cn1 (mixture of isomers) [Compound 65, cis-(5-(5-chloro-2-((1-methyl-1H-pyrazol-4-yl)amino)pyrimidin-4-yl)-3a-methylhexahydropyrrolo[3,4-c]pyrrol-2(1H)-yl)((S)-2,2-difluorocyclopropyl)methanone]
8 | 31 | 1.4 | – | 330 | Cn1cc(Nc2ncc(Cl)c(N3C[C@@H]4CN(C(=O)CC(F)(F)F)C[C@]4(C)C3)n2)cn1 (racemic) [Compound 68, cis-1-(5-(5-chloro-2((1-methyl-1H-pyrazol-4-yl)amino)pyrimidin-4-yl)-3a-methylhexahydropyrrolo[3,4-c]pyrrol-2(1H)-yl)-3,3,3-trifluoropropan-1-one]
9 | 17 | 5.3 | – | 1200 | Cc1cnc(Nc2cnn(C)c2)nc1N1C[C@@H]2CN(C(=O)C3CC3)C[C@]2(C)C1 (racemic) [Compound 70, cis-cyclopropyl(3a-methyl-5-(5-methyl-2-((1-methyl-1H-pyrazol-4-yl)amino)pyrimidin-4-yl)hexahydropyrrolo[3,4-c]pyrrol-2(1H)-yl)methanone]
10 | 3.3 | 1.2 | – | 3540 | Cc1cnc(Nc2cnn(C)c2)nc1N1C[C@@H]2CN(C(=O)CC#N)C[C@]2(C)C1 (racemic) [Compound 71, cis-3-(3a-methyl-5-(5-methyl-2-((1-methyl-1H-pyrazol-4-yl)amino)pyrimidin-4-yl)hexahydropyrrolo[3,4-c]pyrrol-2(1H)-yl)-3-oxopropanenitrile]

Source: patent US12448382B2, “Heterocyclic compounds for mediating tyrosine kinase 2 activity” (GUANGZHOU INNOCARE PHARMA TECH CO., LTD., priority 2019, dated 2025)
